# Tested on: Chikungunya virus
# Assay: Observational study of mequitazine in preventive and early treatment of inflammatory syndromes caused by the Chikungunya virus
# Assay type: in vivo
# Conditions: patients
# Experimental: Effect of Mequitazine on the Preventive and Early Treatment of Inflammatory Syndromes Caused by the Chikungunya Virus—Results of an Observational Study
# 104 patients were included in this observational study involving a limited number of doctors held secret: mean age 39.6 years, 61.9% female.
# At the time of inclusion at D0, the patients were slightly feverish with a mean temperature of 38.4° C.
# The patients consulted after various periods following the onset of hyperthermia, but generally 1.1 days after this onset, the phase preceding the onset of arthralgia.
# During this first visit, the most painful joints were the fingers, wrists and ankles.
# At this first visit on D0, the doctors gave mequitazine to the patients, possibly in combination with an anti-inflammatory.
# A questionnaire was handed to each patient and completed with the patient.
# This questionnaire included the content of 2 conventional questionnaires: • HAQ* questionnaire (Health Assessment Questionnaire) to assess the functional capacity of patients (function index) i.e. the handicap generated by the pathology; • A SF12** questionnaire to assess the quality of life of the patient using the SF12 score.
# At D7 and D14 the patient again filled in these questionnaires.
# At D28, at the time of a further consultation, these questionnaires were again updated. • HAQ: Bruce B and Fries J. The Stanford Health Assessment Questionnaire (HAQ): A review of its history, issues, progress and documentation. J. Rheumatol. 2003; 30(1):167-78. • SF12: Ware J Jr, Kosinski M, Keller S D. A 12-item Short-Form Health Survey: construction of scales and preliminary tests of reliability and validity. Med. Care 1996; 34:220-33.
smiles,measurement,setting,value
c1ccc2c(c1)Sc1ccccc1N2CC1CN2CCC1CC2 (centres unmarked) [mequitazine],handicap generated by the pathology (HAQ function index),"at D14, mequitazine given at D0",statistically significant improvement
same,handicap generated by the pathology (HAQ function index),"at D28, mequitazine given at D0",statistically significant improvement
same,number of painful joints,"between D0 and D7, decrease continuing in time",significant decrease
same,influence of combining an anti-inflammatory with mequitazine on the SF12 physical score measuring quality of life,mequitazine combined with an anti-inflammatory,does not have an influence
same,physical recovery (SF12 scale and HAQ test) in relation to how early mequitazine is prescribed,the earlier a patient consults and mequitazine is prescribed,the more physical recovery is swift and extensive
